# Reference: ChEMBL document CHEMBL4017545, “Small Molecule Antagonists of the Interaction between the Histone Deacetylase 6 Zinc-Finger Domain and Ubiquitin” (J Med Chem, 2017)
# Tests used:
# [1] = biological target: T1, Protein deacetylase HDAC6 (Homo sapiens, UniProt Q9UBN7); experiment: Displacement of FITC-labeled RLRGG peptide from N-terminal His6-tagged HDAC6 zinc-finger ubiquitin binding domain (1109 to 1215 residues)(unknown origin) expressed in Escherichia coli BL21(DE3) after 10 mins by fluorescence polarization assay
# T1 sequence (Q9UBN7 whole entry): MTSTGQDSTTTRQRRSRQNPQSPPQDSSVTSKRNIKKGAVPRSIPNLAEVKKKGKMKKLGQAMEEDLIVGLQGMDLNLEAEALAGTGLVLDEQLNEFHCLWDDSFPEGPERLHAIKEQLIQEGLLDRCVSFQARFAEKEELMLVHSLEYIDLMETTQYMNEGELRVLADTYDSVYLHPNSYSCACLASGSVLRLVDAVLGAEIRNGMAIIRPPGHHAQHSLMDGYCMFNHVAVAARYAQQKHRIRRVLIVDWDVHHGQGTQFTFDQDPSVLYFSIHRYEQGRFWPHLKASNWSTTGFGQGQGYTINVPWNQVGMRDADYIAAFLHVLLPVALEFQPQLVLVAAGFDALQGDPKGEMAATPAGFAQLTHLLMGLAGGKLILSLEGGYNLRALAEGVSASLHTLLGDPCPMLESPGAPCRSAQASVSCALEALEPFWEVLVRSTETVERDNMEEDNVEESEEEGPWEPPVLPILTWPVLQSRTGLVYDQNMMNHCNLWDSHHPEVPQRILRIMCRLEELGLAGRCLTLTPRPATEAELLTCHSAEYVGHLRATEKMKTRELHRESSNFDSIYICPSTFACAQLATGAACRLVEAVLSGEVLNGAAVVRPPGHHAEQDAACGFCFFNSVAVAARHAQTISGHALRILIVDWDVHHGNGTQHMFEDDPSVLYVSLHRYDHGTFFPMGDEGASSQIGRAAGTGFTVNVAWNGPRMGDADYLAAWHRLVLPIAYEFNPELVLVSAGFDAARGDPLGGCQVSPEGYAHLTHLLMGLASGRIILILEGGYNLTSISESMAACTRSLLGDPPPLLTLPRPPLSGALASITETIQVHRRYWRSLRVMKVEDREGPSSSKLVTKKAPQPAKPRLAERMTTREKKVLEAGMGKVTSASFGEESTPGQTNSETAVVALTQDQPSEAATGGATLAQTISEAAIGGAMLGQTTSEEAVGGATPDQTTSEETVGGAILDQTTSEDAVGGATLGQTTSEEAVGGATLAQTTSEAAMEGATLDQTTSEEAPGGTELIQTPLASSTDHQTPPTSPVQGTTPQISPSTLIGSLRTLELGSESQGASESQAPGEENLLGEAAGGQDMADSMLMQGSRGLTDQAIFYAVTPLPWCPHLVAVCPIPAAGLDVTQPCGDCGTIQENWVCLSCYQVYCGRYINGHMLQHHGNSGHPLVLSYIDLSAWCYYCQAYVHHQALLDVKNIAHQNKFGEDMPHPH
# [2] = biological target: T1, Protein deacetylase HDAC6; experiment: Binding affinity to N-terminal Avi-tagged/C-terminal His6-tagged HDAC6 zinc-finger ubiquitin binding domain (1109 to 1215 residues)(unknown origin) expressed in Escherichia coli BL21(DE3) after 30 secs by SPR assay
# [3] = biological target: T1, Protein deacetylase HDAC6; experiment: Binding affinity to N-terminal His6-tagged HDAC6 zinc-finger ubiquitin binding domain (1109 to 1215 residues)(unknown origin) expressed in Escherichia coli BL21(DE3) by isothermal titration calorimetry
SMILES,IC50 [1],IC50 ([1]; read-out: IC50) [µM],further results
O=C(O)CCc1nc2ccccc2nc1OCc1ccccc1,Not Active,–,–
Cc1n[nH]c(=O)nc1Nc1ccc(C(C)C)cc1,Not Active,–,Kd [2]: Not Active; Kd [3]: Not Active
O=C(O)CCc1nc2ccccc2nc1OCCOc1ccccn1,–,110,–
Cn1c(=O)c(CCC(=O)O)nc2ccccc21,–,70,–
O=C(O)CCc1nc2cc(Cl)ccc2s1,–,55,Kd ([2]; read-out: Kd): 60 µM; Kd ([3]; read-out: Kd): 40 µM
Cn1ccnc1COc1nc2ccccc2nc1CCC(=O)O,–,140,–
Cc1cccc(OCCOc2nc3ccccc3nc2CCC(=O)O)c1,–,180,–
O=C(O)CCn1nc(-c2cccnc2)ccc1=O,–,350,Kd ([2]; read-out: Kd): 220 µM; Kd ([3]; read-out: Kd): 210 µM
O=C(O)CCc1nc2ccccc2nc1OCc1cccs1,Not Active,–,–
O=C(O)CCc1nc2ccccc2nc1OCc1ccccn1,–,270,–
CCC(=O)Nc1nc(C)cs1,Not Active,–,Kd [2]: Not Active; Kd [3]: Not Active
O=C(O)CCc1nc2ccccc2nc1Sc1ccccc1,–,60,–
